Patent US12630565B2, “DNA-dependent protein kinase inhibitor” (DIZAL (JIANGSU) PHARMACEUTICAL CO., LTD., priority 2019, dated 2026)

Tests used:
[1] = test system: MDCKII-MDR1-BCRP cell monolayers; assay: MDCKII-MDR1-BCRP efflux assay; assay type: in vitro ADME; conditions: 5 μM compound, 120 min, HBSS pH 7.4
How it was run: (§1)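 Bidirectional (A-B, B-A) transport of 5 μM compound across MDCKII-MDR1-BCRP monolayers in HBSS, 25 mM HEPES pH 7.4, ~37° C. for 120 min, triplicate; donor and receiver concentrations measured, monolayer integrity checked with Lucifer yellow. Papp and efflux ratio calculated.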

[2] = test system: Rat hepatocyte; assay: Metabolic stability assay (rat hepatocyte Clint); assay type: in vitro ADME; conditions: 1 μM compound, cryopreserved hepatocytes 1 million cells per mL
How it was run: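 Compound at 1 μM incubated with cryopreserved rat hepatocytes, 1 million cells/mL, sampled 0–120 min with acetonitrile quench and LC-MS/MS quantitation. CLint (μL/min/E6) derived from elimination rate constant and half-life of parent disappearance, scaled by cell concentration.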

[3] = target: Full length human DNAPK protein (Homo sapiens, UniProt P78527); assay: DNA-PK enzymatic assay (TR-FRET); assay type: biochemical; conditions: 10 μM ATP, 1.6 μM peptide substrate
[4] = Metabolic stability assay (human microsomal Clint); assay type: in vitro ADME; conditions: 1 mg/mL microsomes, 1 mM NADPH, 37° C.; for Human liver microsomal CLint: 1 μM compound; for microsomal CLint at 1 μM: human, pooled human liver microsomes, pH 7.4, 1 μM compound
How it was run: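 Compound (1 μM) incubated at 37 °C with pooled human liver microsomes (1 mg/mL) and 1 mM NADPH in 100 mM phosphate, pH 7.4. Samples quenched in acetonitrile at 0–30 min and analysed by LC-MS/MS for parent loss. CLint reported in μl/min/mg.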

[5] = test system: MDR1, BCRP; assay: MDCKII-MDR1-BCRP efflux assay; assay type: in vitro ADME; conditions: dog, pH 7.4, 5 μM compound, HBSS pH 7.4, read-out: MDCK-Mdr1-BCRP efflux ratio
How it was run: as §1

Row | Structure (SMILES) | MDCK-Mdr1-BCRP efflux ratio [1] | Rat hepatocyte CLint (μl/min/10^−6 cells) [2] [μl/min/10^−6 cells] | IC50 [3] [nM] | Human liver microsomal CLint [4] [µL/min/mg] | efflux ratio at 120 min, 5 μM [5] | microsomal CLint at 1 μM [4] [µL/min/mg]
1 | Cc1cc2ncnn2cc1Nc1ncc2c(C)nn(C3CCCOC3)c2n1 (single isomer, unassigned) [Example 30, 3-methyl-N-(7-methyl-[1,2,4]triazolo[1,5-a]pyridin-6-yl)-1-(tetrahydro-2H-pyran-3-yl)-1H-pyrazolo[3,4-d]pyrimidin-6-amine] | 1.2 | 4.5 | 15.7 | 17.7 | – | –
2 | COc1ccc(Cn2nc(C)c3cnc(Nc4cn5ncnc5cc4C)nc32)cc1 [Example 18, 1-(4-methoxybenzyl)-3-methyl-N-(7-methyl-[1,2,4]triazolo[1,5-a]pyridin-6-yl)-1H-pyrazolo[3,4-d]pyrimidin-6-amine] | – | 31.7 | 2.6 | – | 1.1 | 153
3 | Cc1cc2ncnn2cc1Nc1ncc2c(C)nn([C@H]3CC[C@H](O)CC3)c2n1 [Example 31, (1r,4r)-4-(3-methyl-6-((7-methyl-[1,2,4]triazolo[1,5-a]pyridin-6-yl)amino)-1H-pyrazolo[3,4-d]pyrimidin-1-yl)cyclohexan-1-ol] | – | 12.4 | 1.8 | – | 31.2 | 6.6
4 | Cc1cc2ncnn2cc1Nc1ncc2c(C)nn(C3CCOC(C)C3)c2n1 (single isomer, unassigned) [Example 35, 3-methyl-N-(7-methyl-[1,2,4]triazolo[1,5-a]pyridin-6-yl)-1-(2-methyltetrahydro-2H-pyran-4-yl)-1H-pyrazolo[3,4-d]pyrimidin-6-amine] | – | 21.7 | 2.8 | – | 1.7 | 55.4
5 | Cc1cc2ncnn2cc1Nc1ncc2c(n1)c([C@H]1CC[C@H](OC(F)F)CC1)nn2C [Example 12, 3-((1r,4r)-4-(difluoromethoxy)cyclohexyl)-1-methyl-N-(7-methyl-[1,2,4]triazolo[1,5-a]pyridin-6-yl)-1H-pyrazolo[4,3-d]pyrimidin-5-amine] | – | 70.3 | 1.1 | – | 2.1 | 109
6 | Cc1cc2ncnn2cc1Nc1ncc2c(C)nn(C3CCC4(CC3)CC4)c2n1 [Example 37, 3-methyl-N-(7-methyl-[1,2,4]triazolo[1,5-a]pyridin-6-yl)-1-(spiro[2.5]octan-6-yl)-1H-pyrazolo[3,4-d]pyrimidin-6-amine] | – | 71.1 | 0.9 | – | 0.6 | 200
7 | Cc1cc2ncnn2cc1Nc1ncc2c(C)nn(C3CCOCC3)c2n1 [Example 13, 3-methyl-N-(7-methyl-[1,2,4]triazolo[1,5-a]pyridin-6-yl)-1-(tetrahydro-2H-pyran-4-yl)-1H-pyrazolo[3,4-d]pyrimidin-6-amine] | – | <1 | 3.9 | – | 2.8 | 12.9
8 | Cc1cc2ncnn2cc1Nc1ncc2c(C)nn(CC3CC3)c2n1 [Example 38, 1-(cyclopropylmethyl)-3-methyl-N-(7-methyl-[1,2,4]triazolo[1,5-a]pyridin-6-yl)-1H-pyrazolo[3,4-d]pyrimidin-6-amine] | – | 15.3 | 11.1 | – | 1.4 | 34.2
9 | Cc1cc2ncnn2cc1Nc1ncc2c(C)nn(C3CCCOC3)c2n1 (single isomer, unassigned) [Example 29, 3-methyl-N-(7-methyl-[1,2,4]triazolo[1,5-a]pyridin-6-yl)-1-(tetrahydro-2H-pyran-3-yl)-1H-pyrazolo[3,4-d]pyrimidin-6-amine] | – | 13.3 | 2 | – | 1.6 | 24.5

Now from value to compound:

Row | MDCK-Mdr1-BCRP efflux ratio [1] | Rat hepatocyte CLint (μl/min/10^−6 cells) [2] [μl/min/10^−6 cells] | IC50 [3] [nM] | Human liver microsomal CLint [4] [µL/min/mg] | efflux ratio at 120 min, 5 μM [5] | microsomal CLint at 1 μM [4] [µL/min/mg] | Structure (SMILES)
10 | 2.4 | 5.0 | 7.2 | 15.2 | – | – | Cc1cc2ncnn2cc1Nc1ncc2c(C)nn(CC3CCOC3)c2n1 (single isomer, unassigned) [Example 53, 3-methyl-N-(7-methyl-[1,2,4]triazolo[1,5-a]pyridin-6-yl)-1-((tetrahydrofuran-3-yl)methyl)-1H-pyrazolo[3,4-d]pyrimidin-6-amine]
11 | 1.9 | <1 | 12 | 20.9 | – | – | Cc1cc2ncnn2cc1Nc1ncc2c(C)nn(CC3CCCO3)c2n1 (single isomer, unassigned) [Example 51, 3-methyl-N-(7-methyl-[1,2,4]triazolo[1,5-a]pyridin-6-yl)-1-((tetrahydrofuran-2-yl)methyl)-1H-pyrazolo[3,4-d]pyrimidin-6-amine]
12 | – | 9.3 | 2.1 | – | 19 | 23.5 | Cc1cc2nccn2cc1Nc1ncc2c(C)nn(CC(C)C#N)c2n1 (centres unmarked) [Example 80, 2-methyl-3-(3-methyl-6-((7-methylimidazo[1,2-a]pyridin-6-yl)amino)-1H-pyrazolo[3,4-d]pyrimidin-1-yl)propanenitrile]
13 | – | 7.8 | 3.7 | – | 3.5 | 47 | Cc1cc2ncnn2cc1Nc1ncc2c(C)nn(C3CCOCC3C)c2n1 (single isomer, unassigned) [Example 112, 3-methyl-N-(7-methyl-[1,2,4]triazolo[1,5-a]pyridin-6-yl)-1-(3-methyltetrahydro-2H-pyran-4-yl)-1H-pyrazolo[3,4-d]pyrimidin-6-amine]
14 | – | 1.9 | 24 | – | 4.3 | 8.8 | Cc1cc2ncnn2cc1Nc1ncc2c(C)nn(C3COC3)c2n1 [Example 44, 3-methyl-N-(7-methyl-[1,2,4]triazolo[1,5-a]pyridin-6-yl)-1-(oxetan-3-yl)-1H-pyrazolo[3,4-d]pyrimidin-6-amine]
15 | – | 9.6 | 6.2 | – | 0.8 | 10.1 | COc1cc(C)c(Nc2ncc3c(C)nn(C4CCOCC4)c3n2)cn1 [Example 89, N-(6-methoxy-4-methylpyridin-3-yl)-3-methyl-1-(tetrahydro-2H-pyran-4-yl)-1H-pyrazolo[3,4-d]pyrimidin-6-amine]
16 | – | 1.0 | 1.8 | – | 7.5 | 5.9 | Cc1cc2ncnn2cc1Nc1ncc2c(C)nn(CCC#N)c2n1 [Example 72, 3-(3-methyl-6-((7-methyl-[1,2,4]triazolo[1,5-a]pyridin-6-yl)amino)-1H-pyrazolo[3,4-d]pyrimidin-1-yl)propanenitrile]
17 | – | 144.4 | 4.2 | – | 0.9 | 125 | Cc1cc2ncnn2cc1Nc1ncc2c(C)nn([C@H]3C[C@@H](C)C3)c2n1 [Example 40, 3-methyl-N-(7-methyl-[1,2,4]triazolo[1,5-a]pyridin-6-yl)-1-((1s,3s)-3-methylcyclobutyl)-1H-pyrazolo[3,4-d]pyrimidin-6-amine]
